EPA's ToxRefDB 2

Tests used:
rat [1] = details: Combined chronic toxicity/carcinogenicity, fischer, Oral, Feed, dose end: 2 year
rat [2] = details: Multigenerational reproductive toxicity study, sprague dawley, Oral, Feed, dose end: 2 generation
rabbit [3] = details: Prenatal developmental toxicity study, Dutch, Oral, Gavage/Intubation, dose end: 18 GD
mouse [4] = details: Combined chronic toxicity/carcinogenicity, cd1, Oral, Feed, dose end: 24 month
rat [5] = details: Combined chronic toxicity/carcinogenicity, fischer, Oral, Feed, dose end: 106 week
rabbit [6] = details: Prenatal developmental toxicity study, dutch, Oral, Gavage/Intubation, dose end: 27 GD
rat [7] = details: Subchronic oral toxicity in rodents, fischer, Feed, dose end: 13 week, group: systemic, systemic / clinical chemistry / cholesterol / cholesterol + systemic / organ weight / kidney / relative to body weight + systemic / organ …
rat [8] = details: Subchronic oral toxicity in rodents, sprague dawley, Feed, dose end: 90 day, group: systemic, systemic / organ weight / liver / absolute + systemic / organ weight / liver / relative to body weight + systemic / organ weight / thyroid …
rat [9] = details: Combined chronic toxicity/carcinogenicity, sprague dawley, Oral, Feed, dose end: 26 month, group: systemic
dog = details: Chronic toxicity; beagle; Oral; Feed; dose end: 52 week; group: systemic; systemic / clinical chemistry / alkaline phosphatase (alp/alk) / alkaline phosphatase (alp/alk) + systemic / organ weight / liver / absolute…
mouse [10] = details: Subchronic oral toxicity in rodents, cd1, Feed, dose end: 13 week
rat [11] = details: Combined chronic toxicity/carcinogenicity; fischer; Oral; Feed; dose end: 25 month; group: systemic; systemic / clinical chemistry / creatinine / creatinine + systemic / clinical chemistry / gamma glutamyl transpeptides (gtp) / gamma …
[12] = group: cholinesterase, cholinesterase / cholinesterase / cholinesterase / brain cholinesterase (che) + cholinesterase / cholinesterase / cholinesterase / …
[13] = group: systemic, systemic / in life observation / body weight / body weight + systemic / in life observation / body weight / body weight gain + systemic / …
[14] = group: cholinesterase, cholinesterase / cholinesterase / cholinesterase / brain cholinesterase (che) + cholinesterase / cholinesterase / cholinesterase / plasma …
[15] = group: offspring, systemic / in life observation / body weight / offspring (pup) weight + systemic / pathology microscopic / kidney / dilatation
[16] = group: parental, systemic / pathology gross / lung / discolored + systemic / pathology microscopic / lung / hyperplasia + systemic / pathology microscopic / …
[17] = group: reproductive, reproductive / offspring survival early / birth index / birth index
[18] = group: cholinesterase, cholinesterase / cholinesterase / cholinesterase / erythrocyte cholinesterase (che) + cholinesterase / cholinesterase / cholinesterase / …
[19] = group: developmental, developmental / developmental malformation / bone / delayed ossification + systemic / in life observation / body weight / fetal weight
[20] = group: maternal, reproductive / reproductive performance / resorptions / resorptions + reproductive / reproductive performance / aborted / aborted + systemic…
[21] = group: systemic, systemic / in life observation / clinical signs / urine staining - perineum
[22] = group: systemic, systemic / in life observation / clinical signs / vaginal discharge + systemic / in life observation / clinical signs / urine staining - …
[23] = group: cholinesterase, cholinesterase / cholinesterase / cholinesterase / plasma cholinesterase (che) + cholinesterase / cholinesterase / cholinesterase / brain …
[24] = group: systemic, systemic / hematology / hematocrit (hct) / hematocrit (hct) + systemic / hematology / mean corpuscular (cell) volume (mcv) / mean …
[25] = group: developmental, systemic / in life observation / body weight / fetal weight
[26] = group: maternal, reproductive / reproductive performance / aborted / aborted + systemic / in life observation / body weight / body weight gain + systemic / …
[27] = systemic / pathology microscopic / kidney / nephropathy + systemic / pathology microscopic / liver / degeneration
[28] = systemic / pathology microscopic / kidney / nephropathy + systemic / pathology microscopic / liver / degeneration + systemic / pathology …
[29] = group: cholinesterase, cholinesterase / cholinesterase / cholinesterase / brain cholinesterase (che)
[30] = group: systemic, systemic / organ weight / liver / absolute + systemic / organ weight / liver / relative to body weight + systemic / organ weight / liver / …

`COP(=O)(OC)C(O)C(Cl)(Cl)Cl` (stereo not drawn) [Trichlorfon] was tested, and the LEL (rat [1]; [12]) was 129 mg/kg/day, the LOAEL (rat [1]; [12]) was 129 mg/kg/day and the NEL (rat [1]; [12]) was < 129 mg/kg/day. The NOAEL (rat [1]; [12]) was < 129 mg/kg/day, the LEL (rat [1]; [13]) was 129 mg/kg/day and the LOAEL (rat [1]; [13]) was 129 mg/kg/day. The NEL (rat [1]; [13]) was < 129 mg/kg/day, the NOAEL (rat [1]; [13]) was < 129 mg/kg/day and the LEL (rat [2]; [14]) was 15 mg/kg/day. For the same compound, the LOAEL (rat [2]; [14]) was 15 mg/kg/day, the NEL (rat [2]; [14]) was < 15 mg/kg/day and the NOAEL (rat [2]; [14]) was < 15 mg/kg/day. The LEL (rat [2]; [15]) was 175 mg/kg/day, the LOAEL (rat [2]; [15]) was 175 mg/kg/day and the NEL (rat [2]; [15]) was 50 mg/kg/day. The NOAEL (rat [2]; [15]) was 50 mg/kg/day, the LEL (rat [2]; [16]) was 175 mg/kg/day and the LOAEL (rat [2]; [16]) was > 175 mg/kg/day. For the same compound, the NEL (rat [2]; [16]) was 50 mg/kg/day, the NOAEL (rat [2]; [16]) was ≥ 175 mg/kg/day and the LOAEL (rat [2]; [17]) was 175 mg/kg/day. It also gave an NEL (rat [2]; [17]) of 50 mg/kg/day, an NOAEL (rat [2]; [17]) of 50 mg/kg/day and an LEL (rat [2]; group: reproductive, reproductive / offspring survival early / birth index / birth index + reproductive / offspring survival early / litter size / litter size) of 175 mg/kg/day. The LEL (rabbit [3]; [18]) was 35 mg/kg/day, the LOAEL (rabbit [3]; [18]) was 35 mg/kg/day and the NEL (rabbit [3]; [18]) was 10 mg/kg/day. The NOAEL (rabbit [3]; [18]) was 10 mg/kg/day, the LEL (rabbit [3]; [19]) was 110 mg/kg/day and the LOAEL (rabbit [3]; [19]) was 110 mg/kg/day. For the same compound, the NEL (rabbit [3]; [19]) was 35 mg/kg/day, the NOAEL (rabbit [3]; [19]) was 35 mg/kg/day and the LEL (rabbit [3]; group: maternal, reproductive / reproductive performance / aborted / aborted + systemic / in life observation / clinical signs / altered breathing rate + …) was 35 mg/kg/day. For the same compound, the LOAEL (rabbit [3]; group: maternal, reproductive / reproductive performance / resorptions / resorptions) was 110 mg/kg/day, the NEL (rabbit [3]; [20]) was 10 mg/kg/day and the NOAEL (rabbit [3]; [20]) was 35 mg/kg/day. The LEL (mouse [4]; [12]) was 45 mg/kg/day, the LOAEL (mouse [4]; [12]) was 45 mg/kg/day and the NEL (mouse [4]; [12]) was < 45 mg/kg/day. The NOAEL (mouse [4]; [12]) was < 45 mg/kg/day, the LEL (mouse [4]; [21]) was 45 mg/kg/day and the NEL (mouse [4]; [21]) was < 45 mg/kg/day. For the same compound, the LOAEL (mouse [4]; [22]) was > 405 mg/kg/day, the NOAEL (mouse [4]; [22]) was ≥ 405 mg/kg/day and the LEL (rat [5]; [23]) was 15 mg/kg/day. The LOAEL (rat [5]; [23]) was 15 mg/kg/day, the NEL (rat [5]; [23]) was 5 mg/kg/day and the NOAEL (rat [5]; [23]) was 5 mg/kg/day. It also gave an LEL (rat [5]; [24]) of 15 mg/kg/day, an LOAEL (rat [5]; [24]) of 15 mg/kg/day and an NEL (rat [5]; [24]) of 5 mg/kg/day. For the same compound, the NOAEL (rat [5]; [24]) was 5 mg/kg/day.
In the case of `CCCCOCN(C(=O)CCl)c1c(CC)cccc1CC` [Butachlor], the LEL (rabbit [6]; [25]) was 150 mg/kg/day, the LOAEL (rabbit [6]; [25]) was 150 mg/kg/day and the NEL (rabbit [6]; [25]) was 50 mg/kg/day. The NOAEL (rabbit [6]; [25]) was 50 mg/kg/day, the LEL (rabbit [6]; [26]) was 150 mg/kg/day and the LOAEL (rabbit [6]; [26]) was 150 mg/kg/day. The NEL (rabbit [6]; [26]) was 50 mg/kg/day, the NOAEL (rabbit [6]; [26]) was 50 mg/kg/day and the LEL (rat [7]) was 58.7 mg/kg/day. It also gave an LOAEL (rat [7]) of 58.7 mg/kg/day, an NEL (rat [7]) of 17.5 mg/kg/day and an NOAEL (rat [7]) of 17.5 mg/kg/day. The LEL (rat [8]) was 50 mg/kg/day, the LOAEL (rat [8]) was 50 mg/kg/day and the NEL (rat [8]) was < 50 mg/kg/day. For the same compound, the NOAEL (rat [8]) was < 50 mg/kg/day, the LOAEL (rat [9]; [27]) was 4.5 mg/kg/day and the NOAEL (rat [9]; [27]) was < 4.5 mg/kg/day. For the same compound, the LEL (rat [9]; [28]) was 4.5 mg/kg/day, the NEL (rat [9]; [28]) was < 4.5 mg/kg/day and the LEL (dog) was 25 mg/kg/day. It also gave an LOAEL (dog) of 25 mg/kg/day, an NEL (dog) of 5 mg/kg/day and an NOAEL (dog) of 5 mg/kg/day. For the same compound, the LEL (mouse [10]; [29]) was 150 mg/kg/day, the LOAEL (mouse [10]; [29]) was > 900 mg/kg/day and the NEL (mouse [10]; [29]) was < 150 mg/kg/day. For the same compound, the NOAEL (mouse [10]; [29]) was ≥ 900 mg/kg/day, the LEL (mouse [10]; [30]) was 150 mg/kg/day and the LOAEL (mouse [10]; [30]) was 150 mg/kg/day. The NEL (mouse [10]; [30]) was < 150 mg/kg/day, the NOAEL (mouse [10]; [30]) was < 150 mg/kg/day and the LEL (rat [11]) was 37.1 mg/kg/day. For the same compound, the LOAEL (rat [11]) was 37.1 mg/kg/day, the NEL (rat [11]) was 3.65 mg/kg/day and the NOAEL (rat [11]) was 3.65 mg/kg/day.
